{"source": "patent US6355799B1", "about": "“Substituted benzene compounds, process for their preparation, and herbicidal and defoliant compositions containing them” (ISK Americas Incorporated, priority 1997, dated 2002)", "assay_type_in_all_cases": "in vivo", "key": {"[1]": {"test_system": "field corn (Zea mays L., var. Dekalb 535, CORN)", "test": "Post-emerge test, crop safety", "settings": "post-emerge, 14 days after application, rating scale 0-100", "outline": "(§1)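 Compounds in acetone were track-sprayed at 187 l/ha, 15–1000 g ai/ha, onto sandy loam pots. Pre-emerge seeds were sown one day before spraying, with surface watering afterwards. Post-emerge plants were at the 2–3 leaf stage and sprayed with 0.25% v/v non-ionic surfactant. Injury was rated 0–100 at 14 days.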"}, "[2]": {"test_system": "upland rice (Oryza sp., var. Tebonnet, RICE)", "test": "Post-emerge test, crop safety", "settings": "post-emerge, 14 days after application, rating scale 0-100", "outline": "as §1"}, "[3]": {"test_system": "sicklepod (Cassia obtusifolia, CASOB)", "test": "Post-emerge test, greenhouse herbicide activity screening", "settings": "post-emerge, 14 days after application, rating scale 0-100", "outline": "as §1"}, "[4]": {"test_system": "redroot pigweed (Amaranthus retroflexus, AMARE)", "test": "Post-emerge test, greenhouse herbicide activity screening", "settings": "post-emerge, 14 days after application", "outline": "as §1"}, "[5]": {"test_system": "barnyardgrass (Echinochloa crus-galli, ECHCG)", "test": "Post-emerge test, greenhouse herbicide activity screening", "settings": "post-emerge, 14 days after application, rating scale 0-100", "outline": "as §1"}, "[6]": {"test_system": "green foxtail (Setaria viridis, SETVI)", "test": "Post-emerge test, greenhouse herbicide activity screening", "settings": "post-emerge, 14 days after application, rating scale 0-100", "outline": "as §1"}, "[7]": {"test_system": "lambsquarters (Chenopodium album, CHEAL)", "test": "Post-emerge test, greenhouse herbicide activity screening", "settings": "post-emerge, 14 days after application, rating scale 0-100", "outline": "as §1"}, "[8]": {"test_system": "johnsongrass (Sorghum halepense, SORHA)", "test": "Post-emerge test, greenhouse herbicide activity screening", "settings": "post-emerge, 14 days after application, rating scale 0-100", "outline": "as §1"}, "[9]": {"test_system": "ivyleaf morningglory (Ipomoea hederacea, IPOHE)", "test": "Post-emerge test, greenhouse herbicide activity screening", "settings": "post-emerge, 14 days after application, rating scale 0-100", "outline": "as §1"}, "[10]": {"test_system": "large crabgrass (Digitaria sanguinalis, DIGSA)", "test": "Post-emerge test, greenhouse herbicide activity screening", "settings": "post-emerge, 14 days after application, rating scale 0-100", "outline": "as §1"}, "[11]": {"test_system": "velvetleaf (Abutilon theophrasti, ABUTH)", "test": "Post-emerge test, greenhouse herbicide activity screening", "settings": "post-emerge, 14 days after application, rating scale 0-100", "outline": "as §1"}, "[12]": {"settings": "63 g ai/ha, rating scale 0-100 (0 no damage, 100 complete death)"}, "[13]": {"settings": "250 g ai/ha, rating scale 0-100"}}, "data": [{"compound": "Cn1c(C(F)(F)F)cc(=O)n(-c2c(O)cc(Cl)cc2Cl)c1=O", "note": "[16-1]", "values": [{"measurement": "Post-emerge Herbicidal Activity CORN (crop damage rating)", "setting": "[1]; 63 g ai/ha", "result": 0}, {"measurement": "Post-emerge Herbicidal Activity CORN (crop damage rating)", "setting": "[1]; 250 g ai/ha", "result": 0}, {"measurement": "Post-emerge Herbicidal Activity RICE (crop damage rating)", "setting": "[2]; 63 g ai/ha", "result": 0}, {"measurement": "Post-emerge Herbicidal Activity RICE (crop damage rating)", "setting": "[2]; 250 g ai/ha", "result": 10}, {"measurement": "Post-emerge Herbicidal Activity CASOB (phytotoxicity rating)", "setting": "[3]; 63 g ai/ha", "result": 0}, {"measurement": "Post-emerge Herbicidal Activity CASOB (phytotoxicity rating)", "setting": "[3]; 250 g ai/ha", "result": 0}, {"measurement": "Post-emerge Herbicidal Activity AMARE (phytotoxicity rating)", "setting": "[4]; [12]", "result": 70}, {"measurement": "Post-emerge Herbicidal Activity AMARE (phytotoxicity rating)", "setting": "[4]; [13]", "result": 70}, {"measurement": "Post-emerge Herbicidal Activity ECHCG (phytotoxicity rating)", "setting": "[5]; 63 g ai/ha", "result": 0}, {"measurement": "Post-emerge Herbicidal Activity ECHCG (phytotoxicity rating)", "setting": "[5]; 250 g ai/ha", "result": 0}, {"measurement": "Post-emerge Herbicidal Activity SETVI (phytotoxicity rating)", "setting": "[6]; 63 g ai/ha", "result": 0}, {"measurement": "Post-emerge Herbicidal Activity SETVI (phytotoxicity rating)", "setting": "[6]; 250 g ai/ha", "result": 0}, {"measurement": "Post-emerge Herbicidal Activity CHEAL (phytotoxicity rating)", "setting": "[7]; 63 g ai/ha", "result": 0}, {"measurement": "Post-emerge Herbicidal Activity CHEAL (phytotoxicity rating)", "setting": "[7]; 250 g ai/ha", "result": 70}, {"measurement": "Post-emerge Herbicidal Activity SORHA (phytotoxicity rating)", "setting": "[8]; 63 g ai/ha", "result": 20}, {"measurement": "Post-emerge Herbicidal Activity SORHA (phytotoxicity rating)", "setting": "[8]; 250 g ai/ha", "result": 40}, {"measurement": "Post-emerge Herbicidal Activity IPOHE (phytotoxicity rating)", "setting": "[9]; 63 g ai/ha", "result": 30}, {"measurement": "Post-emerge Herbicidal Activity IPOHE (phytotoxicity rating)", "setting": "[9]; 250 g ai/ha", "result": 70}, {"measurement": "Post-emerge Herbicidal Activity DIGSA (phytotoxicity rating)", "setting": "[10]; 63 g ai/ha", "result": 20}, {"measurement": "Post-emerge Herbicidal Activity DIGSA (phytotoxicity rating)", "setting": "[10]; 250 g ai/ha", "result": 80}, {"measurement": "Post-emerge Herbicidal Activity ABUTH (phytotoxicity rating)", "setting": "[11]; 63 g ai/ha", "result": 70}, {"measurement": "Post-emerge Herbicidal Activity ABUTH (phytotoxicity rating)", "setting": "[11]; 250 g ai/ha", "result": 100}]}, {"compound": "Cn1c(C(F)(F)F)cc(=O)n(-c2c(Cl)cc(Cl)cc2OC(=O)c2ccc(F)cc2F)c1=O", "note": "[16-4]", "values": [{"measurement": "Post-emerge Herbicidal Activity CORN (crop damage rating)", "setting": "[1]; 63 g ai/ha", "result": 0}, {"measurement": "Post-emerge Herbicidal Activity CORN (crop damage rating)", "setting": "[1]; 250 g ai/ha", "result": 0}, {"measurement": "Post-emerge Herbicidal Activity RICE (crop damage rating)", "setting": "[2]; 63 g ai/ha", "result": 0}, {"measurement": "Post-emerge Herbicidal Activity RICE (crop damage rating)", "setting": "[2]; 250 g ai/ha", "result": 0}, {"measurement": "Post-emerge Herbicidal Activity CASOB (phytotoxicity rating)", "setting": "[3]; 63 g ai/ha", "result": 0}, {"measurement": "Post-emerge Herbicidal Activity CASOB (phytotoxicity rating)", "setting": "[3]; 250 g ai/ha", "result": 0}, {"measurement": "Post-emerge Herbicidal Activity AMARE (phytotoxicity rating)", "setting": "[4]; [12]", "result": 0}, {"measurement": "Post-emerge Herbicidal Activity AMARE (phytotoxicity rating)", "setting": "[4]; [13]", "result": 0}, {"measurement": "Post-emerge Herbicidal Activity ECHCG (phytotoxicity rating)", "setting": "[5]; 63 g ai/ha", "result": 0}, {"measurement": "Post-emerge Herbicidal Activity ECHCG (phytotoxicity rating)", "setting": "[5]; 250 g ai/ha", "result": 0}, {"measurement": "Post-emerge Herbicidal Activity SETVI (phytotoxicity rating)", "setting": "[6]; 63 g ai/ha", "result": 0}, {"measurement": "Post-emerge Herbicidal Activity SETVI (phytotoxicity rating)", "setting": "[6]; 250 g ai/ha", "result": 0}, {"measurement": "Post-emerge Herbicidal Activity CHEAL (phytotoxicity rating)", "setting": "[7]; 63 g ai/ha", "result": 0}, {"measurement": "Post-emerge Herbicidal Activity CHEAL (phytotoxicity rating)", "setting": "[7]; 250 g ai/ha", "result": 0}, {"measurement": "Post-emerge Herbicidal Activity SORHA (phytotoxicity rating)", "setting": "[8]; 63 g ai/ha", "result": 0}, {"measurement": "Post-emerge Herbicidal Activity SORHA (phytotoxicity rating)", "setting": "[8]; 250 g ai/ha", "result": 0}, {"measurement": "Post-emerge Herbicidal Activity IPOHE (phytotoxicity rating)", "setting": "[9]; 63 g ai/ha", "result": 0}, {"measurement": "Post-emerge Herbicidal Activity IPOHE (phytotoxicity rating)", "setting": "[9]; 250 g ai/ha", "result": 0}, {"measurement": "Post-emerge Herbicidal Activity DIGSA (phytotoxicity rating)", "setting": "[10]; 63 g ai/ha", "result": 0}, {"measurement": "Post-emerge Herbicidal Activity DIGSA (phytotoxicity rating)", "setting": "[10]; 250 g ai/ha", "result": 0}, {"measurement": "Post-emerge Herbicidal Activity ABUTH (phytotoxicity rating)", "setting": "[11]; 63 g ai/ha", "result": 0}, {"measurement": "Post-emerge Herbicidal Activity ABUTH (phytotoxicity rating)", "setting": "[11]; 250 g ai/ha", "result": 0}]}]}
